Source: ChEMBL document CHEMBL1201862, “PubChem BioAssay data set” (2004)
Where “and” joins values, the source holds several entries; their conditions need not be identical. Identical values can stand only once.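 Following 48 hours of exposure in 96-well plates, responses at five concentrations were used to interpolate endpoints linearly. GI50 = concentration required for 50% inhibition of growth.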 Calls of active or inactive are those of the source. Rule as the data show it: active = GI50 up to about 1.1 µM and inactive = higher.

Legend:
Experiment in all cases: NCI-60 cell line screen, 48 h
A498 = test system: A498
A549 = test system: A549
CAKI-1 = test system: CAKI-1
CCRF-CEM = test system: CCRF-CEM
HCC 2998 = test system: HCC 2998
Hs-578T = test system: Hs-578T
K562 = test system: K562
MDA-MB-231 = test system: MDA-MB-231
NCI-H226 = test system: NCI-H226
NCI-H460 = test system: NCI-H460
NCI/ADR-RES = test system: NCI/ADR-RES
OVCAR-3 = test system: OVCAR-3
OVCAR-8 = test system: OVCAR-8
SK-MEL-5 = test system: SK-MEL-5
SK-OV-3 = test system: SK-OV-3
TK-10 = test system: TK-10
U-251 = test system: U-251
Malme-3M = test system: Malme-3M
SN12C = test system: SN12C

Row | SMILES | GI50 (A498) | GI50 (A549) | GI50 (CAKI-1) | GI50 (CCRF-CEM) | GI50 (HCC 2998) | GI50 (Hs-578T) | GI50 (K562) | GI50 (MDA-MB-231) | GI50 (NCI-H226) | GI50 (NCI-H460) | GI50 (NCI/ADR-RES) | GI50 (OVCAR-3) | GI50 (OVCAR-8) | GI50 (SK-MEL-5) | GI50 (SK-OV-3) | GI50 (TK-10) | GI50 (U-251) | GI50 (Malme-3M) | GI50 (SN12C)
1 | CC1(C=O)CCC23COC4(CCC5C6(C)CCC(OC7OCC(OC8OC(CO)C(O)C(OC9OC(CO)C(O)C(O)C9O)C8OC8OCC(O)C(O)C8O)C(O)C7OC7OC(CO)C(O)C(O)C7O)C(C)(C)C6CCC5(C)C4(C)CC2O)C3C1 (stereo not given) | 0.552 µM (active) | 1.63 µM (inactive) | 1.12 µM (active) | 0.221 µM (active) | 1.01 µM (active) | 1.5 µM (inactive) | 3.1 µM (inactive) | 0.32 µM (active) | 1.8 µM (inactive) | 1.29 µM (inactive) | 0.264 µM (active) | 1.47 µM (inactive) | 0.365 µM (active) | 1.61 µM (inactive) | 1.28 µM (inactive) | 1.89 µM (inactive) | 2.34 µM (inactive) |  | 
2 | CC1=C[C@@H](C)C[C@]2(C)CC[C@H](O2)[C@]23CC[C@](C)(C[C@H](O2)[C@@H]2O[C@@](C)(CC2=O)[C@@H](O)[C@H]2CC[C@@]4(CCC[C@@H](O4)[C@H](C)C(=O)O[C@H]4C[C@H]([C@]5(O)OCC[C@H](C)[C@@H]5O)O[C@H]4C=C1)O2)O3 | 0.00147 µM (active) | 0.0035 µM (active) | < 0.001 µM (active) | 0.00188 µM (active) | 0.075 µM (active) | 0.00115 µM (active) | 0.00692 µM (active) | 0.00528 µM (active) | 0.00157 µM (active) | 0.00429 µM (active) | 0.897 µM (active) | 0.00397 µM (active) |  | 0.00148 µM (active) | 0.00757 µM (active) | 0.00545 µM (active) | 0.0146 µM (active) | 0.00165 µM (active) | 
3 | O=C(CSc1nnc(-c2ccccn2)s1)N/N=C/c1ccc([N+](=O)[O-])cc1 | 31 µM (inactive) | 58.5 µM (inactive) | > 100 µM (inactive) | > 100 µM (inactive) |  | 32.1 µM (inactive) | > 100 µM (inactive) | 15.9 µM (inactive) | > 100 µM (inactive) | > 100 µM (inactive) | > 100 µM (inactive) | > 100 µM (inactive) | 41.8 µM (inactive) | > 100 µM (inactive) | 35.2 µM (inactive) | 21.7 µM (inactive) | 14.5 µM (inactive) | > 100 µM (inactive) | 69.8 µM (inactive)
4 | CCSc1n/c(=C\c2ccco2)c2nnnn12 | > 100 µM (inactive) | > 100 µM (inactive) | > 100 µM (inactive) | > 100 µM (inactive) | > 100 µM (inactive) | > 100 µM (inactive) |  | > 100 µM (inactive) | > 100 µM (inactive) |  | > 100 µM (inactive) | > 100 µM (inactive) | > 100 µM (inactive) | > 100 µM (inactive) | > 100 µM (inactive) | > 100 µM (inactive) | > 100 µM (inactive) | > 100 µM (inactive) | > 100 µM (inactive)
5 | Cc1[nH]c2ncn3[nH]c(=S)nc3c2c1Cc1ccccc1 | > 100 µM (inactive) | > 100 µM (inactive) | > 100 µM (inactive) | 76.4 µM (inactive) | 92.5 µM (inactive) | 62.7 µM (inactive) |  | > 100 µM (inactive) | > 100 µM (inactive) | > 100 µM (inactive) | > 100 µM (inactive) | > 100 µM (inactive) | > 100 µM (inactive) | > 100 µM (inactive) | > 100 µM (inactive) | > 100 µM (inactive) | > 100 µM (inactive) | > 100 µM (inactive) | > 100 µM (inactive)
6 | Nc1ccc(-c2nc3cc(F)ccc3s2)cc1CO | 0.0102 µM (active) | > 69 µM (inactive) | > 56.5 µM (inactive) | 89.5 µM (inactive) | 0.313 µM (active) | 34.4 µM (inactive) | > 100 µM (inactive) | 22.9 µM (inactive) | 0.0219 µM (active) | 3.04 µM (inactive) | 53.6 µM (inactive) | 36.2 µM (inactive) | 28.6 µM (inactive) | > 96.8 µM (inactive) | 16.7 µM (inactive) |  | 16.4 µM (inactive) | > 72.3 µM (inactive) | 32.7 µM (inactive)
7 | CC(C)(C)OC(=O)NC(CSCc1ccc(C(=O)c2ccccc2)cc1)C(=O)O (stereo not given) | > 100 µM (inactive) | > 100 µM (inactive) | > 100 µM (inactive) | > 100 µM (inactive) | > 100 µM (inactive) | 34.9 µM (inactive) | > 100 µM (inactive) | > 100 µM (inactive) | > 100 µM (inactive) | > 100 µM (inactive) | > 100 µM (inactive) | > 100 µM (inactive) | > 100 µM (inactive) | > 100 µM (inactive) |  | > 100 µM (inactive) | > 100 µM (inactive) | > 100 µM (inactive) | > 100 µM (inactive)
8 | BrC1(c2ccccc2)C[n+]2c(-c3ccccc3)cc(-c3ccccc3)cc2-c2ccccc21 (stereo not given) | 1.81 µM (inactive) | 0.929 µM (active) | 3.66 µM (inactive) | 0.52 µM (active) | 0.111 µM (active) | 0.231 µM (active) | 0.159 µM (active) | 0.336 µM (active) | 0.659 µM (active) | 0.444 µM (active) | 17.9 µM (inactive) | 0.0489 µM (active) | 0.36 µM (active) | 0.197 µM (active) |  | 1.73 µM (inactive) | 0.226 µM (active) | 0.441 µM (active) | 3.88 µM (inactive)
9 | CCC/C(C)=N/NC(=S)SC.CCC/C(C)=N/NC(=S)SC.[Zn+2] | 22.2 µM (inactive) | 12.6 µM (inactive) | 13.7 µM (inactive) | 2.16 µM (inactive) |  | 15.7 µM (inactive) | 16.6 µM (inactive) | 1.7 µM (inactive) | 12.6 µM (inactive) | 16 µM (inactive) | 16.7 µM (inactive) | 10.2 µM (inactive) | 1.89 µM (inactive) | 11.2 µM (inactive) | 16.2 µM (inactive) | 11.6 µM (inactive) | 1.84 µM (inactive) | 2.9 µM (inactive) | 2.94 µM (inactive)
10 | CC(=O)O[C@H]1CC[C@@]2(C)[C@@H](CC[C@@H]3[C@@H]2CC(=O)[C@@]2(C)[C@H]3C[C@@H]3CC(C)=CC(=O)[C@@H]32)C1 | > 100 µM (inactive) | 62.4 µM (inactive) | > 100 µM (inactive) | 36.1 µM (inactive) | 71.3 µM (inactive) | 20.7 µM (inactive) | 40.5 µM (inactive) | > 100 µM (inactive) | > 100 µM (inactive) |  | 59 µM (inactive) | 81.8 µM (inactive) | 59.7 µM (inactive) | 40.9 µM (inactive) | > 100 µM (inactive) | > 100 µM (inactive) | > 100 µM (inactive) | 40.6 µM (inactive) | 41 µM (inactive)
11 | O=c1n(Cc2ccccc2)c(=O)n2c(=O)n(Cc3ccccc3)c(=O)n12 | > 100 µM (inactive) |  | > 100 µM (inactive) | > 100 µM (inactive) | > 100 µM (inactive) | > 100 µM (inactive) | > 100 µM (inactive) | > 100 µM (inactive) | > 100 µM (inactive) | > 100 µM (inactive) | > 100 µM (inactive) |  | > 100 µM (inactive) | > 100 µM (inactive) | > 100 µM (inactive) | > 100 µM (inactive) | > 100 µM (inactive) | > 100 µM (inactive) | > 100 µM (inactive)
12 | CC(=O)OCC(OC(C)=O)C(OC(C)=O)C(OC(C)=O)C(C=NN(C(C)=O)S(=O)(=O)c1ccc(/C=C2\NC(=O)N(C)C2=O)cc1)OC(C)=O (stereo not given) | 38 µM (inactive) | 47 µM (inactive) | 45.4 µM (inactive) |  | 16.3 µM (inactive) | 25.3 µM (inactive) | 36.3 µM (inactive) | 33.5 µM (inactive) | 22.8 µM (inactive) | 18.8 µM (inactive) | 73.3 µM (inactive) | 29.7 µM (inactive) | 27.2 µM (inactive) | 29.6 µM (inactive) | 31.4 µM (inactive) |  | 22.6 µM (inactive) | 17.5 µM (inactive) | 30.6 µM (inactive)
13 | O=C1c2ccccc2C(=O)N1n1c(Cc2ccccc2)n[nH]c1=O | > 100 µM (inactive) | > 100 µM (inactive) | > 100 µM (inactive) | > 100 µM (inactive) | > 100 µM (inactive) | > 100 µM (inactive) | > 100 µM (inactive) | > 100 µM (inactive) | > 100 µM (inactive) | > 100 µM (inactive) | > 100 µM (inactive) | > 100 µM (inactive) | > 100 µM (inactive) | > 100 µM (inactive) |  | > 100 µM (inactive) | > 100 µM (inactive) | > 100 µM (inactive) | > 100 µM (inactive)
14 | O=C1CC(C(OCc2ccccc2)C(OCc2ccccc2)C(COCc2ccccc2)OCc2ccccc2)CC(=O)N1 (stereo not given) | > 100 µM (inactive) | 72.4 µM (inactive) |  |  | > 75 µM (inactive) | > 75 µM (inactive) and 88.7 µM (inactive) |  | 71.4 µM (inactive) | > 100 µM (inactive) | > 75 µM (inactive) | > 75 µM (inactive) |  | > 75 µM (inactive) | > 75 µM (inactive) |  | > 75 µM (inactive) |  | > 100 µM (inactive) | > 75 µM (inactive)
15 | O=c1[nH]c(=S)[nH]c(-c2ccccc2)c1Cc1c(O)ccc2ccccc12 [CAMBINOL] | 21.3 µM (inactive) | 32.2 µM (inactive) | 25.5 µM (inactive) | 19.9 µM (inactive) |  | 43.9 µM (inactive) | 31.3 µM (inactive) | 38.6 µM (inactive) | 29.6 µM (inactive) | 48.2 µM (inactive) | 33.5 µM (inactive) | 54.3 µM (inactive) | 38 µM (inactive) | 21 µM (inactive) | 46.1 µM (inactive) | 29.1 µM (inactive) | 36.1 µM (inactive) | 7.98 µM (inactive) | 32.7 µM (inactive)
